Measured values: patent US11622964B2, “Method for destroying cellular mechanical homeostasis and promoting regeneration and repair of tissues and organs, and use thereof” (INSTITUTE OF ZOOLOGY, CHINESE ACADEMY OF SCIENCES, priority 2018, dated 2023)

Experiments:
[1] = system: mouse embryonic fibroblasts (MEFs); test: TGF-β1-induced transformation of mouse embryonic fibroblasts into myofibroblasts; format: cell-based; settings: S-Bleb-OB 20 μM; for stretched state / fibrous morphology of MEFs: compared with DMSO; for TGF-β1-induced myofibroblast activation: scheme as Example 9-1
Excerpt: In this example, cell models for in vitro fibrosis are respectively built to activate mouse hepatic stellate Cells (mHSCs, FIG. 13(B)), mouse embryonic fibroblasts (MEFs FIG. 13(C)), mouse adult liver, lung, and heart-derived primary mesenchymal cells (priMCs, FIG. 13(D)), and human hepatic stellate cells (hLX-2, FIG. 13(E)) into myofibroblasts through the induction of TGF-β1. The specific experimental procedure is as shown in FIG. 9A: a medium containing 10% serum is used for the initial cell culture; after 24 hours the medium is replaced with low serum medium (or pre-starvation treatment for 16 hours) while adding 3 ng/ml TGF-β1 with DMSO or Bleb (20 μM); after 7 days the expression of myofibroblast activation marker protein (Acta2), collagen (Col1a1, Col1a2, Col3a1, and Col1a2), and matrix metalloproteinases and inhibitors (collagenases: MmP8, and MmP13; gelatinases: MmP2, and MmP9; a metalloproteinase inhibitor: Timp1/2/3) are identified.

[2] = system: adult hepatocytes; test: In vitro amplification of adult hepatocytes; format: cell-based, human; settings: for number of cells: after 6 days of culture
Protocol: Resuscitation and Culture of Adult Hepatocytes: adult hepatocytes ([…] […] human, Bioreclamation IVT) are taken out from the liquid nitrogen tank, quickly placing in a 37° C. water bath, after melting the cells are added to 5 ml of 37° C. pre-warmed hepatocyte inoculation medium (In VitroGRO CP Medium), then inoculating at 9×10^4/well in 24-well plate after counting, 2-4 hours after hepatocyte adherence, the hepatocyte inoculation medium is sucked and discarded, then respectively adding control medium for hepatocyte culture, 10 μm small molecule medium, and 20 μm small molecule medium; changing the medium every 2 days. The number of cells is estimated from the photograph on day 2. After 4 days, the 20 μm small molecule medium group is changed to culture the cells in 10 μm small molecule medium. After co-culturing for 6 days the cells are counted. A portion of the cells are taken for RNA extraction so as to detect the expression of human hepatocyte-specific genes. Passage of Adult Hepatocytes: 4.7×10^4 hepatocytes cultured in the above control group, and 8×10^4 hepatocytes cultured in 10 μm small molecule medium are respectively re-inoculated into 24-well plate coated with rat tail collagen, changing the medium every two days and culturing for 6 days, photographs are taken to record the growth of the cells. Induction of CYP1A2 in Adult Hepatocytes Amplified by Small Molecule Medium: 3×10^5 hepatocytes are inoculated in 24-well plate coated with rat tail collagen, after culturing in 10 μm small molecule medium for 24 hours, the medium is replaced with 10 μm small molecule medium containing 50 μm omeprazole, and in the control group the cells are cultured in 10 μm small molecule medium containing DMSO; 48 hours later, the cells are collected to detect the expression of the CYP1A2 gene.

Molecule: Cc1ccc2c(c1)C(=O)[C@@]1(O)CCN(c3ccccc3)C1=N2 [R-Bleb, (R)-(+)-blebbistatin]
- stretched state / fibrous morphology of MEFs [1]: does not affect the fibrous morphology
- TGF-β1-induced myofibroblast activation [1]: no inhibitory effect

Molecule: Cc1ccc2c(c1)C(=O)[C@]1(OC(=O)c3ccccc3)CCN(c3ccccc3)C1=N2 [S-Bleb-OB, (−)-blebbistatin o-benzoate]
- stretched state / fibrous morphology of MEFs [1]: may destroy the stretched state
- TGF-β1-induced myofibroblast activation [1]: capable of inhibiting

Molecule: COc1ccc2[nH]c([S+]([O-])Cc3ncc(C)c(OC)c3C)nc2c1 (stereo not drawn) [omeprazole]
- expression of CYP1A2 gene after induction ([2]; 50 μm omeprazole, 48 hours, subcultured adult hepatocytes in 10 μm small molecule medium): increase

Molecule: (−)-blebbistatin
- amplification effect on adult hepatocytes (cell number day 6 / day 2) [2]: significant amplification effect
- expression of human hepatocyte specific genes ALBUMIN, AFP, CYP1A2, CYP3A4 [2]: still express
- subculture of human hepatocytes [2]: can subculture human hepatocytes
- number of cells ([2]; 10 μm group): 6.47×10^4 (SD=1.24)
- number of cells ([2]; # group (20 μm for 4 days, then 10 μm for 2 days)): 9.47×10^4 (SD=0.98)
- expression of proliferating cell nuclear antigen (PCNA) gene ([2]; vs control group): significantly higher

Molecule: (−)-blebbistatin o-benzoate [S-Bleb-OB]
- TGF-β1-induced myofibroblast activation [1]: have an inhibitory effect
